# Measurements from patent US7396547B2, “Antiseptic composition” (priority 1999, dated 2008).
# Key:
# [1] = tested on: certain strains of MRSA; experiment: Tests against MRSA; type: cell-based, Staphylococcus aureus
# Source text: In a further aspect, therefore, the invention provides the use of PMD against MRSA.
# [2] = tested on: acne; experiment: Effect against acne
# Source text: The etiology of acne is not completely understood, but, in some instances, it is believed that acne has a bacterial etiology.
# [3] = tested on: E. coli; experiment: Cis PMD MIC/MBC determination, broth dilution and sub-culture; type: cell-based; set-up: key to bacterial growth: A “+” indicates bacterial growth; a “−” indicates that bacterial growth is prevented; details: for bacterial growth: overnight 37° C.
# Description: MIC—minimum inhibitory concentration. This is the concentration of PMD which prevents bacterial growth. […] Thus, for E. Coli below, the minimum inhibitory concentration is 0.25% PMD in 1.25% ethanol.
# MBC—minimum bactericidal concentration. This is the concentration of PMD which kills the bacteria. A “ ? ” indicates live bacteria are present.
# Cis PMD was dissolved in Absolute Ethanol (0.2 g/ml) to give 20% solution. This was further diluted in water to give 10% in 50% EtOH. 200 μl was added to 0.8 ml Iso-sensitest broth to give a 2% solution in 10% EtOH. Serial 2-fold dilutions in ISB were then carried out and 20 μl E. coli (McFarlane 0.5) were added to each tube and incubated overnight at 37° C. After 18 hours, tubes showing no growth were sub-cultured.
# [4] = Toxicity tests for regulatory authorities
# Source text: PMD is the active ingredient in our MOSIGUARD™ insect repellant. We have conducted tests to show regulatory authorities that PMD is not toxic, and we have marketed our insect repellent for several years and there has been no report of any significant toxicity thereof. Potentially, therefore, the medical uses of PMD may be topical or systemic. Systemic administration may be by way of an oral dosage form or by a parenteral route, such as by intra-venous injection.
# [5] = Solubility in water; type: physicochemical
# Source text: A composition for use in accordance with the invention can comprise PMD and a carrier.
# [6] = tested on: MRSA 15; experiment: Cis PMD MIC/MBC determination, broth dilution and sub-culture; type: cell-based, Staphylococcus aureus; set-up: key: A “+” indicates bacterial growth; a “−” indicates that bacterial growth is prevented; details: overnight 37° C.
# [7] = tested on: P. aeruginosa; experiment: as above; type: cell-based; set-up: key: A “+” indicates bacterial growth; a “−” indicates that bacterial growth is prevented; details: overnight 37° C.
# [8] = tested on: MRSA 16; experiment: as above; type: cell-based, Staphylococcus aureus; set-up: key: A “+” indicates bacterial growth; a “−” indicates that bacterial growth is prevented; details: overnight 37° C.
# [9] = tested on: S. aureus (oxford); experiment: as above; type: cell-based; set-up: key: A “+” indicates bacterial growth; a “−” indicates that bacterial growth is prevented; details: overnight 37° C.
# [10] = tested on: S. pyogenes; experiment: as above; type: cell-based; set-up: key: A “+” indicates bacterial growth; a “−” indicates that bacterial growth is prevented; details: overnight 37° C.
smiles,measurement,setting,value
"C[C@H]1CC[C@H](C(C)(C)O)[C@H](O)C1 (racemic) [PMD, p-menthane-3,8-diol]",effectiveness against MRSA,[1],effective
same,effectiveness against acne,[2],effective
same,minimum inhibitory concentration,[3]; in 1.25% ethanol,0.25%
same,minimum bactericidal concentration,[3]; in 2.5% ethanol,0.5%
same,toxicity,[4],not toxic
same,solubility in water,[5],poorly soluble
CC1CCC(C(C)(C)O)C(O)C1 (stereo not drawn) [Cis PMD],bacterial growth,"[6]; 0.06% PMD, 0.3% alcohol",+
same,bacterial growth,"[6]; 0.125% PMD, 0.6% alcohol",+
same,bacterial growth,"[6]; 0.25% PMD, 1.25% alcohol",+
same,bacterial growth,"[6]; 0.5% PMD, 2.5% alcohol",−
same,bacterial growth,"[6]; 2% PMD, 10% alcohol",−
same,bacterial growth,"[7]; 0.06% PMD, 0.3% alcohol",+
same,bacterial growth,"[7]; 0.125% PMD, 0.6% alcohol",+
same,bacterial growth,"[7]; 0.25% PMD, 1.25% alcohol",+
same,bacterial growth,"[7]; 0.5% PMD, 2.5% alcohol",−
same,bacterial growth,"[7]; 1% PMD, 5% alcohol",−
same,bacterial growth,"[7]; 2% PMD, 10% alcohol",−
same,bacterial growth,"[8]; 0.06% PMD, 0.3% alcohol",+
same,bacterial growth,"[8]; 0.125% PMD, 0.6% alcohol",+
same,bacterial growth,"[8]; 0.25% PMD, 1.25% alcohol",+
same,bacterial growth,"[8]; 0.5% PMD, 2.5% alcohol",−
same,bacterial growth,"[8]; 1% PMD, 5% alcohol",−
same,bacterial growth,"[8]; 2% PMD, 10% alcohol",−
same,bacterial growth,"[9]; 0.06% PMD, 0.3% alcohol",+
same,bacterial growth,"[9]; 0.125% PMD, 0.6% alcohol",+
same,bacterial growth,"[9]; 0.25% PMD, 1.25% alcohol",+
same,bacterial growth,"[9]; 0.5% PMD, 2.5% alcohol",−
same,bacterial growth,"[9]; 1% PMD, 5% alcohol",−
same,bacterial growth,"[9]; 2% PMD, 10% alcohol",−
same,bacterial growth,"[10]; 0.06% PMD, 0.3% alcohol",+
same,bacterial growth,"[10]; 0.125% PMD, 0.6% alcohol",+
same,bacterial growth,"[10]; 0.25% PMD, 1.25% alcohol",−
same,bacterial growth,"[10]; 0.5% PMD, 2.5% alcohol",−
same,bacterial growth,"[10]; 1% PMD, 5% alcohol",−
same,bacterial growth,"[10]; 2% PMD, 10% alcohol",−
same,bacterial growth,"[3]; 0.06% PMD, 0.3% alcohol",+
same,bacterial growth,"[3]; 0.125% PMD, 0.6% alcohol",+
same,bacterial growth,"[3]; 0.25% PMD, 1.25% alcohol",−
same,bacterial growth,"[3]; 0.5% PMD, 2.5% alcohol",−
same,bacterial growth,"[3]; 1% PMD, 5% alcohol",−
same,bacterial growth,"[3]; 2% PMD, 10% alcohol",−
